# According to patent US20160137630A1, “INDUCTION OF GATA2 BY HDAC1 AND HDAC2 INHIBITORS” (ACETYLON PHARMACEUTICALS, INC., priority 2014, published 2016):
# Where two headings read alike, the source gives them in different places.
# Tests used:
# [1] = blood cell counts in monkeys; type: in vivo, cynomolgus monkey; conditions: monkey
# Protocol: (§1) B. Cynomolgus monkey were dosed once daily by oral gavage for 5 consecutive days at 0 mg/kg, 25 mg/kg, or 75 mg/kg per dose (FIG. 25B). Sampling as described in ‘A’.
# For each individual monkey, white blood cell counts were expressed relative to their predose level (time=day 0). Points are the average of n=3 animals with error bars showing the standard deviation.
# HbE mRNA = HbE mRNA levels in peripheral blood of rats; type: in vivo; conditions: rat, 10 and 30 mg/kg; FIG. 27A-B
# Protocol: I. A. Rats were dosed once daily by oral gavage for 6 consecutive days at 0 mg/kg, 10 mg/kg, or 30 mg/kg per dose (See FIG. 25A). Dosing days are indicated by a down arrow (FIG. 25A). Peripheral blood was drawn on the indicated days and analyzed for drug level in plasma (PK), complete blood counts (CBC), or isolation of total ribonucleic acid (RNA). […] For each individual rat, HbE mRNA was expressed relative to HbB mRNA and then normalized to their predose level (time=day 0). Points are the average of n=4 animals with error bars showing the standard deviation (FIG. 27A).
# HbG mRNA = HbG mRNA levels in peripheral blood of monkeys; type: in vivo, cynomolgus monkey; conditions: monkey, 25 and 75 mg/kg; FIG. 27C-D
# Protocol: as §1
# For each individual monkey, HbG mRNA was expressed relative to HbB mRNA and then normalized to their predose level (time=day 0). Points are the median of n=3 animals with error bars showing the range.
# [2] = pharmacokinetics of Compound 001 in cynomolgus monkeys; type: in vivo; conditions: cynomolgus monkey, plasma, read-out: minimum drug exposure for the entire dosing period
# Protocol: as §1
# C. […] Points are the average of replicate animals, error bars are the standard deviation of replicate animals (FIG. 25C).
# [3] = tested on: BFU-E colonies derived from human bone marrow mononuclear cells; assay: % HbG mRNA in BFU-E colonies; type: cell-based; conditions: FIG. 18A
# From the text: Increases in % HbG resulting from HDAC1/2 inhibition were due to increased HbG and decreased HbB (FIGS. 18B, 21D and 21E).
# Gata2 mRNA = assay: induction of Gata2 mRNA in erythroid progenitors by HDAC1,2 inhibitors; type: cell-based, human; conditions: erythroid progenitors differentiated 3 days with compound; FIG. 2A-C
# From the text: Human bone marrow derived CD34+ cells were expanded for 7 days as described by Sankaran et al., Science, vol. 322(5909), pp. 1839-42 (2008). Cells were then differentiated, in the presence of the indicated compound (i.e., Compounds 001, Compound Y, Compound 2005, Compound 2004, Compound 2003), for 3 days in media supporting erythropoiesis (Hu et al., “Isolation and functional characterization of human erythroblasts at distinct stages: implications for understanding of normal and disordered erythropoiesis in vivo”, Blood, vol. 121(16), pp. 3246-53 ([…])). FIG. 2A, FIG. 2B, and FIG. 2C each represents an experimental series performed on different days and with different donor cells.
# [4] = pharmacokinetics of Compound 001 in rats; type: in vivo; conditions: rat, plasma, read-out: minimum drug exposure for the entire dosing period
# Protocol: I. A. Rats were dosed once daily by oral gavage for 6 consecutive days at 0 mg/kg, 10 mg/kg, or 30 mg/kg per dose (See FIG. 25A). Dosing days are indicated by a down arrow (FIG. 25A). Peripheral blood was drawn on the indicated days and analyzed for drug level in plasma (PK), complete blood counts (CBC), or isolation of total ribonucleic acid (RNA). C. […] Points are the average of replicate animals, error bars are the standard deviation of replicate animals (FIG. 25C).
# [5] = tested on: K562 erythroleukemia cells; assay: Gata2 mRNA in K562 cells; type: cell-based; conditions: 3 days, FIG. 3
# [6] = dosing schedule study in rats; type: in vivo, rat; conditions: 30 mg/kg
# Protocol: IV. Rats were dosed with 30 mg/kg once daily by oral gavage according to the above schedule. […] Group 1=daily dosing, Group 2=5 on 2 off, Group 3=3 on 4 off, Group 4=every other day, Group 5=control. N=4 animals per group (FIG. 28A).
# Data points are the average of N=4 animals. HbE2 mRNA level was determined by quantitative real time PCR and expressed relative to HbB mRNA control. Data for each animal was then normalized to the expression level prior to the onset of dosing (average of day −3 and day 0 values).
# Data points are the average of N=4 animals.
# Gata2 regulatory regions = assay: ChIP-QPCR of histone acetylation at Gata2 regulatory regions; type: cell-based
# From the text: In chromatin state maps these histone modifications, especially H3K9ac and H3K27ac, have been associated with active regulatory regions, such as enhancers and promoters of actively transcribed genes. The differentiation profile was unaffected by compound treatment and similar to that of cells used in experiments above (FIG. 23B).
# [7] = tested on: erythroblasts derived from CD34+ cells isolated from human bone marrow; assay: QRT-PCR time course of mRNA expression during erythroid differentiation; type: cell-based
# From the text: Gata2 mRNA was induced while Gata1 mRNA was unaffected. The culture system was as described by Sankaran et al., “Human fetal hemoglobin expression is regulated by the developmental stage-specific repressor BCL11A”, Science, vol. 322(5909), pp. 1839-42 (2008).
# Gata2 mRNA was induced while Gata1 mRNA was unaffected. The culture system as described by Bradner et al., PNAS, vol. 107(28), pp. 12617-22 (2010). […]
# The cells were then differentiated by exposure to either vehicle or Compound 001. RNA was measured at days 0, 2, 3, 4, 5, 6, and 8.
# Gata1 increased and Gata2 decreased in control cells during the 5 days differentiation period, a result consistent with the known expression pattern of these genes during erythropoiesis (FIG. 1C).
# [8] = every other day dosing schedule
# [9] = 1 μM for 6 days, culture conditions supporting late erythroblasts, FIG. 1C
# [10] = 1 μM for 8 days, culture conditions supporting early erythroblasts, FIG. 1B
smiles,measurement,setting,value
"Nc1ccc(-c2cccs2)cc1NC(=O)c1ccc2nc(N3CCNCC3)ccc2c1 [Compound 001, N-(2-amino-5-(thiophen-2-yl)phenyl)-2-(piperazin-1-yl)quinoline-6-carboxamide]",RBC or platelets,[1],no detected affect
same,time of peak white blood cell suppression after the last dose,[1],1 days
same,time to recovery of white blood cell counts to baseline after the last dose,[1],5 days
same,white blood cells,[1]; 25 or 75 mg/kg for 5 days,reversible suppression
same,"HbE mRNA relative to HbB mRNA, normalized to predose",HbE mRNA,dose-dependent increase
same,"HbG mRNA relative to HbB mRNA, normalized to predose",HbG mRNA,dose-dependent increase
same,concentration at 5 days,"[2]; high dose (75 mg/kg once daily oral gavage, 5 days)",≥ 5 µM
same,concentration at 5 days,"[2]; low dose (25 mg/kg once daily oral gavage, 5 days)",≥ 1 µM
same,% HbG,[3],increased % HbG in a dose-dependent manner
same,Gata2 mRNA,Gata2 mRNA,induction of Gata2 mRNA
same,concentration at 6 days,"[4]; high dose (30 mg/kg once daily oral gavage, 6 days)",≥ 5 µM
same,concentration at 6 days,"[4]; low dose (10 mg/kg once daily oral gavage, 6 days)",≥ 1 µM
same,Gata2 mRNA,[5],dose dependent response
same,mode of HbF expression (HbE2 mRNA pattern),[6]; 3 on 4 off dosing schedule,heterocellular mode of HbF expression
same,myelosuppression (white blood cell counts),[6]; 3 on 4 off dosing schedule,greater myelo suppression
same,mode of HbF expression (HbE2 mRNA pattern),[6]; [8],pancellular mode of HbF expression
same,myelosuppression (white blood cell counts),[6]; [8],less myelosuppression
same,"increase in histone H3K9, H2BK5, and H3K27 acetylation",Gata2 regulatory regions; +9.5 kb and −3.9 kb regions,3 fold
same,"increase in histone H3K9, H2BK5, and H3K27 acetylation",Gata2 regulatory regions; −1.8 kb and −2.8 kb regulatory regions,6 fold
same,Gata1 mRNA,[7]; [9],unaffected
same,Gata2 mRNA,[7]; [9],induced
same,Gata1 mRNA,[7]; [10],unaffected
same,Gata2 mRNA,[7]; [10],induced
same,Klf1 mRNA,"[7]; QPCR, FIG. 1N",unaffected
same,decrease in Bcl11a mRNA,[7]; QRT-PCR time course,2 fold
same,decrease in Sox6 mRNA,[7]; QRT-PCR time course,10 fold
same,increase in Gata2 mRNA,[7]; QRT-PCR time course,8 fold
same,Gata2 increase relative to control cells,[7]; day 2,2 fold
same,Gata2 increase relative to control cells,[7]; day 5,5 fold
